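Where inhibition never reached the appropriate level, the endpoint shown equals the highest concentration tested. Otherwise, values were interpolated linearly from a five-concentration, 48-hour dose response in 96-well plates. At the GI50, growth is halved.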 Active and inactive are the calls of the source. Cut-off read from the data, not from the text of the source: active = GI50 up to about 1.1 µM and inactive = higher.
Experiments:
Experiment in all cases: NCI tumour cell line growth inhibition, 48 h
XF498 = test system: XF498
KM-20L2 = test system: KM-20L2
HOP-18 = test system: HOP-18
SNB-78 = test system: SNB-78
M19-MEL = test system: M19-MEL
DLD-1 = test system: DLD-1
DMS-273 = test system: DMS-273
LXFL 529 = test system: LXFL 529
RXF 631 = test system: RXF 631

Structure (SMILES)	GI50 (XF498)	GI50 (KM-20L2)	GI50 (HOP-18)	GI50 (SNB-78)	GI50 (M19-MEL)	GI50 (DLD-1)	GI50 (DMS-273)	GI50 (LXFL 529)	GI50 (RXF 631)
S=c1sc2c(Cl)ncnc2n1-c1ccccc1	15.2 µM (inactive)	19.1 µM (inactive)	19 µM (inactive)	10.5 µM (inactive)	3.8 µM (inactive)	11.5 µM (inactive)	1.51 µM (inactive)	12.4 µM (inactive)	
COc1cc(-c2cc(=O)c3cc(C)c(C)c(C(=O)O)c3o2)cc(OC)c1OC	> 100 µM (inactive)	> 100 µM (inactive)		> 100 µM (inactive)	> 100 µM (inactive)	> 100 µM (inactive)	> 100 µM (inactive)	> 100 µM (inactive)	> 100 µM (inactive)
CC1C(c2ccccc2)=CCON1c1ccccc1 (centres undefined)	> 100 µM (inactive)	> 100 µM (inactive)		> 100 µM (inactive)	> 100 µM (inactive)	> 100 µM (inactive)		> 100 µM (inactive)	
CC(=O)O[C@H]1CCC2[C@@H]3CCC4=C(O)c5nocc5C[C@]4(C)C3CC[C@@]21C (some centres undefined)	> 100 µM (inactive)	> 100 µM (inactive)	> 100 µM (inactive)	> 100 µM (inactive)	> 100 µM (inactive)		> 100 µM (inactive)	> 100 µM (inactive)	
NC(=O)/C(=N\NC(=O)C[n+]1ccccc1)C1NC(=O)NC1=O (centres undefined)	> 100 µM (inactive)	> 100 µM (inactive)	> 100 µM (inactive)	> 100 µM (inactive)	> 100 µM (inactive)	> 100 µM (inactive)	> 100 µM (inactive)	> 100 µM (inactive)	> 100 µM (inactive)
CCCC(=O)c1c(NOC2OC(COC(C)=O)C(OC(C)=O)C(OC(C)=O)C2OC(C)=O)nc(OC)n(C)c1=O (centres undefined)	> 100 µM (inactive)	> 100 µM (inactive)		> 100 µM (inactive)	> 100 µM (inactive)	> 100 µM (inactive)	> 100 µM (inactive)	> 100 µM (inactive)	
CCCCN(CC)CC(C(C)=O)c1c(O)c2ccccc2oc1=O (centres undefined)	> 100 µM (inactive)	> 100 µM (inactive)	> 100 µM (inactive)	> 100 µM (inactive)	> 100 µM (inactive)	> 100 µM (inactive)	> 100 µM (inactive)	> 100 µM (inactive)	
O=c1[nH]cnc2c1nnn2C1C=C(CO)C(O)C1O (centres undefined)	> 100 µM (inactive)	> 100 µM (inactive)	> 100 µM (inactive)	> 100 µM (inactive)	> 100 µM (inactive)	> 100 µM (inactive)	23.5 µM (inactive)	> 100 µM (inactive)	
Cc1ccc(S(=O)(=O)OCC23CCC(C4CC42)C2CC23)cc1 (centres undefined)		> 100 µM (inactive)	> 100 µM (inactive)		60.7 µM (inactive)	> 100 µM (inactive)	68.2 µM (inactive)	65 µM (inactive)	> 100 µM (inactive)
C[C@]12CCC3[C@@H](CC[C@@H]4c5nonc5CC[C@]34C)C1CC[C@@H]2O (some centres undefined)	20.3 µM (inactive)	43.7 µM (inactive)	36.4 µM (inactive)	38.6 µM (inactive)	48 µM (inactive)	26.3 µM (inactive)	23.9 µM (inactive)	37 µM (inactive)	33.1 µM (inactive)
COc1cc(/C=C2\NC(=S)C3Cc4c(OC)c(C)c(OC)c(OC)c4C2N3C)c(OC)c(C)c1OC (centres undefined)		64 µM (inactive)	27.8 µM (inactive)		45.6 µM (inactive)	51.1 µM (inactive)	46.9 µM (inactive)	28.8 µM (inactive)	
Cc1ccc(NCC(=O)N2CC(=O)Nc3ccccc32)c(C)c1	> 100 µM (inactive)	> 100 µM (inactive)	> 100 µM (inactive)	> 100 µM (inactive)	> 100 µM (inactive)	> 100 µM (inactive)	> 100 µM (inactive)	> 100 µM (inactive)	
CCOC(=O)C(C(=O)c1ccccc1-c1ccccc1C(=O)O)=P(c1ccccc1)(c1ccccc1)c1ccccc1	23.3 µM (inactive)	21 µM (inactive)			27.8 µM (inactive)		31.8 µM (inactive)	24.9 µM (inactive)	37.8 µM (inactive)
CCN(CC)CC(C)(C)C(=O)/C=C/c1cccc(/C=C/C(=O)C(C)(C)CN(CC)CC)c1	0.409 µM (active)	1.07 µM (active)	1.51 µM (inactive)	2.21 µM (inactive)	0.959 µM (active)	0.237 µM (active)	0.476 µM (active)	0.331 µM (active)	1.09 µM (active)
Cc1ccccc1/N=N/c1c(-c2ccccc2)nn(C(=O)CC(=O)Nc2cccc(Cl)c2)c1-c1ccccc1	28.2 µM (inactive)	21.5 µM (inactive)	25.7 µM (inactive)	23.5 µM (inactive)	> 10 µM (inactive)	20.4 µM (inactive)	20 µM (inactive)	21.6 µM (inactive)	
Cc1cc2c(c(C#N)c1C)NC(=O)CCC2=O	> 100 µM (inactive)	> 100 µM (inactive)		> 100 µM (inactive)	> 100 µM (inactive)	> 100 µM (inactive)	> 100 µM (inactive)	> 100 µM (inactive)	> 100 µM (inactive)
C=CC1(C(=O)O)CCC(C(C)(C)C)CC1 (centres undefined)	> 100 µM (inactive)	> 100 µM (inactive)	> 100 µM (inactive)	> 100 µM (inactive)	> 100 µM (inactive)	> 100 µM (inactive)	> 100 µM (inactive)	> 100 µM (inactive)	> 100 µM (inactive)
COC(=O)C(CCCCCCCC(C(=O)OC)C1=Nc2nnc(N)n2C1=O)C1=Nc2nnc(N)n2C1=O (centres undefined)	> 100 µM (inactive)	> 100 µM (inactive)	> 100 µM (inactive)	> 100 µM (inactive)	26.1 µM (inactive)	> 100 µM (inactive)	> 100 µM (inactive)	> 100 µM (inactive)	> 100 µM (inactive)
COc1cc2c(Cc3cc(OCc4ccccc4)ccc3N)nccc2c(OC)c1OC	> 10 µM (inactive)	> 10 µM (inactive)	> 10 µM (inactive)	> 10 µM (inactive)	> 10 µM (inactive)	> 10 µM (inactive)	> 10 µM (inactive)	> 10 µM (inactive)	6.55 µM (inactive)
COc1ccc(C(=O)O/N=C2/CCCCC2CN(C)C)cc1 (centres undefined)		> 100 µM (inactive)	> 100 µM (inactive)	> 100 µM (inactive)	> 100 µM (inactive)	> 100 µM (inactive)	> 100 µM (inactive)	> 100 µM (inactive)	> 100 µM (inactive)
C[C@@H]1C[C@@H]2C(=O)N(c3ccccc3)C(=O)[C@@H]2c2[nH]c3ccc(Br)cc3c21	26.1 µM (inactive)	> 100 µM (inactive)	24.1 µM (inactive)	25.1 µM (inactive)	70.8 µM (inactive)	44.2 µM (inactive)	> 100 µM (inactive)	37.6 µM (inactive)	28.8 µM (inactive)
COc1ccccc1/C=N/C12CC3CC(CC(C3)C1)C2		> 100 µM (inactive)			> 100 µM (inactive)		> 100 µM (inactive)		
C1=Cc2nc1c(-c1ccncc1)c1ccc([n-]1)c(-c1ccncc1)c1nc(c(-c3ccncc3)c3ccc([n-]3)c2-c2ccncc2)C=C1.[Zn+2]	> 100 µM (inactive)	> 100 µM (inactive)		> 100 µM (inactive)	> 100 µM (inactive)	> 100 µM (inactive)		> 100 µM (inactive)	> 100 µM (inactive)
C[C@@H]1CC[C@@]2(C)OC(c3ccccc3)[C@H](CO)N2C1=O (some centres undefined)	> 100 µM (inactive)	> 100 µM (inactive)	> 100 µM (inactive)	> 100 µM (inactive)	> 100 µM (inactive)	> 100 µM (inactive)	> 100 µM (inactive)		
O=c1ncccn1[C@@H]1O[C@H](CO)[C@@H](O)[C@@H]1F	> 100 µM (inactive)	> 100 µM (inactive)	> 100 µM (inactive)	> 100 µM (inactive)	> 100 µM (inactive)		> 100 µM (inactive)	> 100 µM (inactive)	> 51.6 µM (inactive)
O=C(O)CCCc1ccc(N(CCCl)CCCl)cc1 [CHLORAMBUCIL]	55.1 µM (inactive)	132 µM (inactive)	> 81.1 µM (inactive)		87.7 µM (inactive)	104 µM (inactive)	23.7 µM (inactive)	95.5 µM (inactive)	86.9 µM (inactive)
